Source: US20240270821A1, “GIP/GLP1/GCG TRI-RECEPTOR AGONISTS AND USES THEREOF” (priority 2023, published 2024)
Like-named read-outs stand apart in the source and are kept apart here. Starred links: 1 amine or outer side, 2 acyl side, 3 side chain; linkers in the order of their positions; H or OH if unused. Non-standard residues stand in square brackets, D forms with d. Residues, ends and D or L forms follow the SMILES beside them. Groups on a side chain read outwards from the residue. No end group written: not given here. *: point of attachment. C20 diacid = O=C(O)CCCCCCCCCCCCCCCCCCC(=O)*; C18 diacid = O=C(O)CCCCCCCCCCCCCCCCC(=O)*; αMePhe(2-F) = C[C@](N)(Cc1ccccc1F)C(=O)O; γGlu = O=C(O)[C@H](CCC(=O)[*:2])N[*:1]; αMe4Pal = C[C@](N)(Cc1ccncc1)C(=O)O; αMeY = C[C@](N)(Cc1ccc(O)cc1)C(=O)O; 4Pal = N[C@@H](Cc1ccncc1)C(=O)O; αMeL = CC(C)C[C@](C)(N)C(=O)O; αMeS = C[C@](N)(CO)C(=O)O; Orn = NCCC[C@H](N)C(=O)O; AEEA = NCCOCCOCC(=O)O; Aib = CC(C)(N)C(=O)O

Experiments:
Format in all cases: cell-based
[1] = biological target: T1, hGLP-1R (Homo sapiens, UniProt P43220); experiment: Functional cAMP activity in the presence of 1% HSA; conditions: read-out: cAMP Rel EC50, hGLP-1R
T1 sequence (P43220 24-463): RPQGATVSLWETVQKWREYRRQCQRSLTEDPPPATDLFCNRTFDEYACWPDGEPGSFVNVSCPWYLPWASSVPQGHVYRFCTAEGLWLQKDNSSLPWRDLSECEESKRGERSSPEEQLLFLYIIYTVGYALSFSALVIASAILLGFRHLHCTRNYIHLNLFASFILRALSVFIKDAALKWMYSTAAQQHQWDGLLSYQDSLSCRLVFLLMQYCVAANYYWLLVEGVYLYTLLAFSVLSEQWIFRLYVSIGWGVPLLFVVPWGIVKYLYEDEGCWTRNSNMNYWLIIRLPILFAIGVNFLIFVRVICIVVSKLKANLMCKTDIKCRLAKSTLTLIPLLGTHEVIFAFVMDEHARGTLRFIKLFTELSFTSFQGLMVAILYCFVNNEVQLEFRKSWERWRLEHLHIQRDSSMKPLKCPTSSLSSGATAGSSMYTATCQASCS

[2] = biological target: T2, hGIPR (Homo sapiens, UniProt P48546); experiment: Functional cAMP activation in the presence of 0.1% casein (no HSA); conditions: read-out: Relative cAMP EC50, hGIPR;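 further: intracellular cAMP rise after 30 min at 37 °C read by HTRF against a standard curve, scaled between buffer alone (0%) and top control ligand concentration (100%), four-parameter fit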
T2 sequence (P48546 22-466): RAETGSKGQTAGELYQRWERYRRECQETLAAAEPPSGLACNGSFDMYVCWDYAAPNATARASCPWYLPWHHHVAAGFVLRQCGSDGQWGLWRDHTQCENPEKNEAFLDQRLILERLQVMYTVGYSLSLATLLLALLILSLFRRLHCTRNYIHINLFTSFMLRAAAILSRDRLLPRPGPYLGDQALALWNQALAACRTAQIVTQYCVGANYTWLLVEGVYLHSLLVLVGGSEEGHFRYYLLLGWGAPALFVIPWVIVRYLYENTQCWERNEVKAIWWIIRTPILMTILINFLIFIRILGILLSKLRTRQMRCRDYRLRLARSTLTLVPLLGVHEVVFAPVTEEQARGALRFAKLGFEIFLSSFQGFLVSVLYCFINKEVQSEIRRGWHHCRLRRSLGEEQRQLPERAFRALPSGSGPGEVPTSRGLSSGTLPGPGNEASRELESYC

[3] = biological target: T1, hGLP-1R; experiment: as above; conditions: read-out: Relative cAMP EC50, hGLP-1R
[4] = biological target: hGcgR (Homo sapiens, UniProt P47871); experiment: as above; conditions: read-out: Relative cAMP EC50, hGcgR;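 further: intracellular cAMP rise after 30 min at 37 °C, read by HTRF against a cAMP standard curve, scaled from buffer only (0%) to maximal control ligand response (100%)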
Chain of hGcgR (P47871 26-477): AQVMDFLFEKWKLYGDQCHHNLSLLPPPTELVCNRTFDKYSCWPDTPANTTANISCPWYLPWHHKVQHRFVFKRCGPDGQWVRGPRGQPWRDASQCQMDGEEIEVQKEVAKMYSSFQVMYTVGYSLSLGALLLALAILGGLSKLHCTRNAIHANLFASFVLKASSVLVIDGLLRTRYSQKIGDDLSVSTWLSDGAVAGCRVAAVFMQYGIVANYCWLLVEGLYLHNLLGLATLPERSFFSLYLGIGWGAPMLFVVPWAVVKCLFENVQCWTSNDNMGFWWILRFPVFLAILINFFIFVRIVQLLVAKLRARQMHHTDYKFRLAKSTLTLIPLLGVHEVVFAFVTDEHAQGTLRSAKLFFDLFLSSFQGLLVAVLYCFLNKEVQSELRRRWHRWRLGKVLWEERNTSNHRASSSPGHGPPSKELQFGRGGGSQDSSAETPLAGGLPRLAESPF

[5] = biological target: human GcgR (Homo sapiens, UniProt P47871); experiment: Functional cAMP activity in the presence of 1% HSA; conditions: read-out: cAMP Rel EC50, hGcgR
Chain of human GcgR (P47871 26-477): as above

[6] = biological target: T2, hGIPR; experiment: Functional cAMP activity in the presence of 1% HSA; conditions: read-out: cAMP Rel EC50, hGIPR
[7] = in the presence of 0.1% casein (no HSA), geometric mean
[8] = 0.1% casein, no HSA, geometric mean
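Wherever Relative cAMP EC50, hGLP-1R is given: intracellular cAMP rise after 30 min at 37 °C read by HTRF, normalized between buffer only (0%) and maximal control ligand (100%), four-parameter variable-slope fit.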

Compound | EC50 [1] | EC50 [2, 7] | EC50 [3, 7] | EC50 [4, 7] | EC50 [5] | EC50 [6] | EC50 [2, 8] | EC50 [3, 8] | EC50 [4, 8] | EC50 [2] | EC50 [3] | EC50 [4]
H-Y[Aib]QGTFTSD[4Pal]SQ[αMeL]LD[Orn]K([γGlu-γGlu-C18 diacid])AQ[αMe4Pal]AFIEYLIA[Aib]GPSSGAPPPSGSEE-NH2 [Example 1091] | 145 nM | 0.0592 nM | 1.23 nM | 4.67 nM | 550 nM | 5.79 nM |  |  |  |  |  | 
Y[Aib]QGTFTSD[4Pal]S[Orn][αMeL]LDKK([γGlu-γGlu-C18 diacid])AQ[Aib]AFIE[αMeY]LLEGGPSSGAPPPSGSEE-NH2 [Example 944] | 985 nM | 0.216 nM | 4.86 nM | 6.16 nM | 1840 nM | 37.2 nM |  |  |  |  |  | 
Y[Aib]QGT[αMePhe(2-F)]TSD[4Pal][αMeS]I[αMeL]LD[Orn]K([AEEA-γGlu-C18 diacid])AQ[αMe4Pal]EFI[dE][αMeY]LIEGGPPS[Aib][Orn]PPPSGSE-NH2 [Example 1198] | 61 nM |  |  |  | 314 nM | 0.67 nM | 0.00663 nM | 0.475 nM | 1.8 nM |  |  | 
H-Y[Aib]QGT[αMePhe(2-F)]TSDYSKLLDKIAQK([AEEA-γGlu-C20 diacid])AFIEYLIEGGPSSGAPPPSGE-NH2 [Example 356] | 206 nM | 0.0613 nM | 0.599 nM | 4.76 nM | 2680 nM | 19.2 nM |  |  |  |  |  | 
CC[C@H](C)[C@H](NC(=O)[C@H](Cc1ccccc1)NC(=O)[C@H](C)NC(=O)C(C)(C)NC(=O)[C@H](CCC(N)=O)NC(=O)[C@H](C)NC(=O)[C@H](CCCCNC(=O)COCCOCCNC(=O)CC[C@H](NC(=O)CCCCCCCCCCCCCCCCC(=O)O)C(=O)O)NC(=O)[C@H](CCCN)NC(=O)[C@H](CC(=O)O)NC(=O)[C@H](CC(C)C)NC(=O)[C@](C)(CC(C)C)NC(=O)[C@@H](NC(=O)[C@](C)(CO)NC(=O)[C@H](Cc1ccncc1)NC(=O)[C@H](CC(=O)O)NC(=O)[C@H](CO)NC(=O)[C@@H](NC(=O)[C@](C)(Cc1ccccc1F)NC(=O)[C@@H](NC(=O)CNC(=O)[C@H](CCC(N)=O)NC(=O)C(C)(C)NC(=O)[C@@H](N)Cc1c[nH]cn1)[C@@H](C)O)[C@@H](C)O)[C@@H](C)CC)C(=O)N[C@H](CCC(=O)O)C(=O)N[C@@H](Cc1ccc(O)cc1)C(=O)N[C@@H](CC(C)C)C(=O)N[C@@H](CC(C)C)C(=O)N[C@@H](CCC(=O)O)C(=O)NCC(=O)NCC(=O)N1CCC[C@H]1C(=O)N[C@@H](CO)C(=O)N[C@@H](CO)C(=O)NCC(=O)N[C@@H](CCC(=O)O)C(=O)N1CCC[C@H]1C(=O)N1CCC[C@H]1C(=O)N1CCC[C@H]1C(=O)N[C@@H](CCC(=O)O)C(N)=O [Example 466] (H-H[Aib]QGT[αMePhe(2-F)]TSD[4Pal][αMeS]I[αMeL]LD[Orn]K([AEEA-γGlu-C18 diacid])AQ[Aib]AFI[dE]YLLEGGPSSGEPPPE-NH2; N-terminus assumed) | 13.3 nM |  |  |  | 348 nM | 5.65 nM |  |  |  | 0.0466 nM | 0.207 nM | 5.84 nM
CC[C@H](C)[C@H](NC(=O)[C@H](CC(C)C)NC(=O)[C@](C)(Cc1ccc(O)cc1)NC(=O)[C@@H](CCC(=O)O)NC(=O)[C@@H](NC(=O)[C@H](Cc1ccccc1)NC(=O)[C@H](CC(N)=O)NC(=O)C(C)(C)NC(=O)[C@H](CCC(N)=O)NC(=O)[C@H](C)NC(=O)[C@H](CCCCNC(=O)COCCOCCNC(=O)CC[C@H](NC(=O)CC[C@H](NC(=O)CCCCCCCCCCCCCCCCC(=O)O)C(=O)O)C(=O)O)NC(=O)[C@H](CCCN)NC(=O)[C@H](CC(=O)O)NC(=O)[C@H](CC(C)C)NC(=O)[C@](C)(CC(C)C)NC(=O)[C@@H](NC(=O)[C@](C)(CO)NC(=O)[C@H](Cc1ccncc1)NC(=O)[C@H](CC(=O)O)NC(=O)[C@H](CO)NC(=O)[C@@H](NC(=O)[C@](C)(Cc1ccccc1F)NC(=O)[C@@H](NC(=O)CNC(=O)[C@H](CCC(N)=O)NC(=O)C(C)(C)NC(=O)[C@@H](N)Cc1ccc(O)cc1)[C@@H](C)O)[C@@H](C)O)[C@@H](C)CC)[C@@H](C)CC)C(=O)N[C@@H](CCC(=O)O)C(=O)NCC(=O)NCC(=O)N1CCC[C@H]1C(=O)N[C@@H](CO)C(=O)N[C@@H](CO)C(=O)NCC(=O)N[C@@H](CCC(=O)O)C(=O)N1CCC[C@H]1C(=O)N1CCC[C@H]1C(=O)N1CCC[C@H]1C(=O)N[C@@H](CCC(=O)O)C(N)=O [Example 451] (H-Y[Aib]QGT[αMePhe(2-F)]TSD[4Pal][αMeS]I[αMeL]LD[Orn]K([AEEA-γGlu-γGlu-C18 diacid])AQ[Aib]NFI[dE][αMeY]LIEGGPSSGEPPPE-NH2; N-terminus assumed) | 10.9 nM |  |  |  | 384 nM | 0.96 nM |  |  |  | 0.0101 nM | 0.256 nM | 4.12 nM
H-Y[Aib]QGTFTSD[4Pal]SK[αMeL]LDKK([AEEA-γGlu-C18 diacid])AQ[Aib]AFIEYLIE[Aib]GPSSGAPPPSGSE-NH2 [Example 901] | 193 nM | 0.17 nM | 1.26 nM | 9.09 nM | 1150 nM | 34 nM |  |  |  |  |  | 
